This is an account of results in publication PMC11389776, “Positive allosteric modulation of a GPCR ternary complex” (Science Advances, 2024).

As usually defined, the pEC50 is the negative decadic logarithm of the EC50, by convention in mol/L.

In test [1] the target is T1, M2 mAChR (Homo sapiens, UniProt P08172, DEL226-389).
T1 construct: made in house; host or cells: Sf9 insect cells (receptor, baculovirus); Trichoplusia ni Hi5 cells (G protein); E. coli BL21(DE3) (cMSP1D1 scaffold)
T1 sequence (P08172 with tags, fused parts or gaps DEL226-389): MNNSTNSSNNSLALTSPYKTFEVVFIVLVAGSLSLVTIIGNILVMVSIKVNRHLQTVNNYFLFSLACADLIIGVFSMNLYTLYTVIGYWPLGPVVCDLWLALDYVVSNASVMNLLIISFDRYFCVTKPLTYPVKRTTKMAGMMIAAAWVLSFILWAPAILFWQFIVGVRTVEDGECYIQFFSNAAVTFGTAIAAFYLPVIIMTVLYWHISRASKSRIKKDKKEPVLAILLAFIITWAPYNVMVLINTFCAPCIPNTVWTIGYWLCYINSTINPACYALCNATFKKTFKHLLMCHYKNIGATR
As to the kind of experiment: [3H]-NMS interaction binding with LY211 and/or G protein at M2 mAChR nanodiscs (full interaction and titration). How it is done: (§1) The affinity of [^3H]-NMS for M2 mAChR in nanodiscs, as well as the concentration of receptor in nanodiscs, was determined through saturation binding with [^3H]-NMS. M2 nanodiscs were incubated with a range of concentrations of [^3H] […] Membrane equilibrium binding experiments were performed with 15 μg of membrane expressing the WT hM2 mAChR in a 300-μl reaction volume of binding buffer with or without 100 μM Gpp[NH]pp in deep 96-well plates for 6 hours at RT. […] For all radioligand binding experiments, nonspecific binding was defined by 10 μM Atr and the assay was terminated through rapid filtration through Whatman GF/B filter plates using a 96-well harvester (PerkinElmer). Filter plates were dried overnight, and radioactivity was determined by adding 40 μl of MicroScint-O scintillation fluid and counting in a MicroBeta^2 Plate Counter (PerkinElmer Life Sciences).
(§2) All data were analyzed using GraphPad Prism 9 (GraphPad Software, San Diego, CA). […] For competition binding experiments between [^3H]-NMS and a range of concentrations of unlabeled orthosteric agonist at M2 mAChR nanodiscs in the presence of G protein and for competition binding at M2 mAChR membranes, data were fit to a two-site competition binding model or a one-site competition binding model. […] Monoexponential decay and one-phase association equations were fit to the radioligand dissociation and association data at M2 mAChR nanodiscs.

The target in a further test is T2, M2ΔICL3 mAChR (Homo sapiens, UniProt P08172, DEL226-389).
T2 construct: expressed in transfected cells
T2 sequence (P08172 with tags, fused parts or gaps DEL226-389): T1 sequence (P08172 with tags, fused parts or gaps DEL226-389)
As to the kind of experiment: ERK1/2 phosphorylation assay in M2ΔICL3 mAChR FlpIn CHO cells. The format is cell-based. To be noted: pERK1/2, M2ΔICL3 mAChR FlpIn CHO cells, normalized to FBS; three-parameter logistic. How it is done: (§3) All data were analyzed using GraphPad Prism 9 (GraphPad Software, San Diego, CA). Concentration-response curves were fit with a three-parameter logistic equation to quantify potency (pEC50) and an operational model of agonism to derive an efficacy parameter (log τ) ([69]). […] For competition binding experiments between [^3H]-NMS and a range of concentrations of unlabeled orthosteric agonist at M2 mAChR nanodiscs in the presence of G protein and for competition binding at M2 mAChR membranes, data were fit to a two-site competition binding model or a one-site competition binding model. […] Monoexponential decay and one-phase association equations were fit to the radioligand dissociation and association data at M2 mAChR nanodiscs. Kinetic TRUPATH data were analyzed using a “baseline then rise to steady state with drift” equation ([44]).

The target in test [2] is T3, M2 mAChR (Homo sapiens, UniProt P08172).
T3 construct: expressed in transfected cells
T3 sequence (P08172 1-466): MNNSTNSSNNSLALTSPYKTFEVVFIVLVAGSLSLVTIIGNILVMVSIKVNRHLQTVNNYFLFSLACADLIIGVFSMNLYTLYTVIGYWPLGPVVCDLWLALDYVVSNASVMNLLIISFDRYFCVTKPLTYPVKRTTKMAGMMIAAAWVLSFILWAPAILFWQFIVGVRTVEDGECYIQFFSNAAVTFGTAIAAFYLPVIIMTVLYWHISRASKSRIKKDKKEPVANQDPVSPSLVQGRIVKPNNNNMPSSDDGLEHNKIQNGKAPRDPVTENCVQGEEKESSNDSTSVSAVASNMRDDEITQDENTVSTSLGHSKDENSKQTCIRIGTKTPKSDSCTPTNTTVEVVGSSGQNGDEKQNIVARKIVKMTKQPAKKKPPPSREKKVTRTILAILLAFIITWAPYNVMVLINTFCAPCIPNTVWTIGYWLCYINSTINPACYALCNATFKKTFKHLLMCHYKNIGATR
As to the kind of experiment: Gi1 (TRUPATH) protein activation assay in M2 mAChR FlpIn CHO cells. The format is cell-based. The conditions noted are these: for Log τ: operational efficacy, operational model of agonism, LY211 value is an estimate (saturation not reached). How it is done: Upon 60 to 80% confluence, WT hM2 mAChR expressing FlpIn CHO cells were transfected transiently using polyethylenimine (Sigma-Aldrich) with 10 ng per well of each the G protein TRUPATH biosensors pcDNA5/FRT/TO-Gαi1-RLuc8/pcDNA3.1-β3/pcDNA3.1-Gγ9-GFP2 giving a ratio of 1:1:1 ratio with 30 ng in total. Cells were plated at 30,000 cells per well into 96-well Greiner CELLSTAR white-walled plates (Sigma-Aldrich). Forty-eight hours later, cells were washed with 200 μl of PBS and replaced with 1x Hanks’ balanced salt solution supplemented with 10 mM Hepes. […] The ratio was vehicle corrected using the initial four baseline measurements and then baseline corrected again using the vehicle-treated wells. Concentration-response curves were constructed from the area under the curve (AUC) of the double baseline-corrected kinetic traces and normalized to the highest AUC value in each dataset.
as §2

The target of test [3] is T1, M2 mAChR. As to the kind of experiment: [3H]-NMS competition binding at M2 mAChR nanodiscs with or without Gi1 protein. How it is done:
as §1, §2

Test [4] has as its target T3, M2 mAChR. As to the kind of experiment: Kinetic Gαi1 (TRUPATH) protein activation assay in M2 mAChR CHO cells. The format is cell-based. The conditions noted are these: for Steady state: final effect level, normalized to ACh. How it is done:
Upon 60 to 80% confluence, WT hM2 mAChR expressing FlpIn CHO cells were transfected transiently using polyethylenimine (Sigma-Aldrich) with 10 ng per well of each the G protein TRUPATH biosensors pcDNA5/FRT/TO-Gαi1-RLuc8/pcDNA3.1-β3/pcDNA3.1-Gγ9-GFP2 giving a ratio of 1:1:1 ratio with 30 ng in total. Cells were plated at 30,000 cells per well into 96-well Greiner CELLSTAR white-walled plates (Sigma-Aldrich). Forty-eight hours later, cells were washed with 200 μl of PBS and replaced with 1x Hanks’ balanced salt solution supplemented with 10 mM Hepes. […] Cells were further incubated for 10 min at 25°C before BRET measurements were performed on a PHERAstar FSX plate reader (BMG Labtech) using 410/80-nm and 515/30-nm filters. […] The BRET signal was calculated as the ratio of 515/30-nm emission over 410/80-nm emission. The ratio was vehicle corrected using the initial four baseline measurements and then baseline corrected again using the vehicle-treated wells. Concentration-response curves were constructed from the area under the curve (AUC) of the double baseline-corrected kinetic traces and normalized to the highest AUC value in each dataset.
as §3

The target in test [5] is T1, M2 mAChR. As to the kind of experiment: [3H]-NMS association and dissociation assays at M2 mAChR nanodiscs. The format is binding. How it is done: The affinity of [^3H]-NMS for M2 mAChR in nanodiscs, as well as the concentration of receptor in nanodiscs, was determined through saturation binding with [^3H]-NMS. M2 nanodiscs were incubated with a range of concentrations of [^3H] NMS in a final volume of 200 μl of binding buffer [20 mM Hepes (pH 7.5), 100 mM NaCl, 10 mM MgCl2, and 0.5% bovine serum albumin] for 6 hours at RT. […] Membrane equilibrium binding experiments were performed with 15 μg of membrane expressing the WT hM2 mAChR in a 300-μl reaction volume of binding buffer with or without 100 μM Gpp[NH]pp in deep 96-well plates for 6 hours at RT. […] For all radioligand binding experiments, nonspecific binding was defined by 10 μM Atr and the assay was terminated through rapid filtration through Whatman GF/B filter plates using a 96-well harvester (PerkinElmer). Filter plates were dried overnight, and radioactivity was determined by adding 40 μl of MicroScint-O scintillation fluid and counting in a MicroBeta^2 Plate Counter (PerkinElmer Life Sciences).
as §3

The mark [6] stands for this setting: saturating amount of drug alone.
The mark [7] stands for this setting: saturating orthosteric agonist + LY211.
[8] abbreviates: saturating amount of drug alone, baseline then rise to steady state with drift model.

As for `C[N+](C)(C)CC#CCOC1=NOCC1` [Ipx, iperoxo], at M2 mAChR [1] (Full interaction, − G protein heterotrimer, cooperativity between orthosteric agonist and LY211, ATCM), the “(LY211) - Log αAgonist” value is 2.05 ± 0.21 (4). Further, the pEC50 is recorded as 8.23 ± 0.16 at M2ΔICL3 mAChR and 9.18 ± 0.22 (7) at M2 mAChR [2] (Gi1 activation (BRET), M2 mAChR FlpIn CHO cells, three-parameter logistic equation). Further, at M2 mAChR [2], the “Log τ” value was 1.61 ± 0.25 (7). For the same compound, at M2 mAChR [3] (M2 mAChR nanodiscs, shift promoted by Gi1), the “increase in affinity between pKi(Low) and pKi(High)” value was 112 fold. In addition, at M2 mAChR [3] (M2 mAChR nanodiscs, without G protein), the “increase in agonist affinity in the presence of 10 μM LY211” value worked out at 112 fold. Besides, the “(G protein) - Log α” value on M2 mAChR [3] (Nanodisc, cooperativity between agonist and G protein (Gi1), ATCM) is recorded as 2.33 ± 0.18 (3). Moreover, at M2 mAChR [3] (Nanodisc, two-site competition binding model, 6 hours at RT), the “pKi(Low)” value is 7.72 ± 0.06 (11). For the same compound, the “FracHi - M2 mAChR nanodiscs - receptor:G protein molar ratio 1:0” value on M2 mAChR [3] (fraction of receptors in high-affinity state, two-site model, R:G 1:0) is recorded as 0.12 ± 0.04 (11). In addition, the “FracHi - M2 mAChR nanodiscs - receptor:G protein molar ratio 1:500” value on M2 mAChR [3] (fraction of receptors in high-affinity state, two-site model, R:G 1:500 (Gi1)) is 0.68 ± 0.06 (3). For the same compound, the “FracHi - M2 mAChR nanodiscs - receptor:G protein molar ratio 1:1000” value at M2 mAChR [3] (fraction of receptors in high-affinity state, two-site model, R:G 1:1000 (Gi1)) is 0.76 ± 0.06 (3). Besides, the “FracHi - M2 mAChR nanodiscs - receptor:G protein molar ratio 1:2000” value at M2 mAChR [3] (fraction of receptors in high-affinity state, two-site model, R:G 1:2000 (Gi1)) was 0.91 ± 0.05 (3). Moreover, the Steady state was 102 ± 0.95 (3) at M2 mAChR [4] (setting [6]) and 114 ± 0.68 (4) at M2 mAChR [4] (setting [7]). Also, the Initial rate on M2 mAChR [4] (setting [8]) is 217 ± 6.48 (3) BRET units min^−1; on M2 mAChR [4] (setting [7]) it was 586 ± 26.8 (4) BRET units min^−1.
In the case of `Cc1c(Cl)c(OCC(=O)N2CCN(C)CC2)nc2sc(C(=O)NC3CC3)c(N)c12` [LY211, LY2119620], the “(LY211) - Log αAgonist” value on M2 mAChR [1] (Full interaction ACh–LY211, + 1:2000 G protein heterotrimer, not different from zero (F test), constrained to zero) is 0. The “(LY211) - Log α[3H]-NMS” value at M2 mAChR [1] (Full interaction with ACh, + 1:2000 G protein heterotrimer, ATCM) is −0.37 ± 0.04 (4). Also, the “Log α[3H]-NMS” value on M2 mAChR [1] (Titration against KD concentration of [3H]-NMS, ATCM) is reported as −0.19 ± 0.08 (3); on M2 mAChR [1] (Titration against [3H]-NMS, + 1:2000 G protein heterotrimer, ATCM) it was −0.81 ± 0.20 (3). Also, the “increase in the affinity of LY211 in the presence of G protein” value at M2 mAChR [1] (titration against [3H]-NMS, with vs without saturating Gi1) was “sixfold”. In addition, the “Log τ” value on M2 mAChR [2] is 0.75 ± 0.12 (4). Besides, the Steady state at M2 mAChR [4] (setting [6]) was 69.1 ± 4.22 (3). In addition, the Initial rate on M2 mAChR [4] (setting [8]) is listed as 198 ± 51.0 (3) BRET units min^−1.
As for `C[N+]1(C)[C@@H]2CC(OC(=O)[C@H](CO)c3ccccc3)C[C@H]1[C@@H]1O[C@@H]12` (stereo partly shown) [[^3H]-NMS, [^3H]-N-methylscopolamine], the B max is 115 ± 13.2 (3) at M2 mAChR [5] (+10 μM LY211); 20.33 ± 4.96 (3) on M2 mAChR [5] (+10 μM LY211 + Gi1); 131 ± 4.71 (3) at M2 mAChR [5] ([3H]-NMS only, maximal binding at equilibrium, one-phase association model). Also, at M2 mAChR [5] ([3H]-NMS only, monoexponential decay), the k off is given as 0.150 ± 0.011 (4) min^−1.
